Test results: patent US20240317721A1, “PYRAZOLYL DERIVATIVES AS INHIBITORS OF THE KRAS MUTANT PROTEIN” (NOVARTIS AG, priority 2021, published 2024)
pIC50: −log10 of the molar value.

Biological target: KRasG12C (M1-K169, biotinylated on the N-terminus) (Homo sapiens (Human), UniProt P01116, G12C)
Assay: Covalent competition assay: scintillation proximity assay (SPA) quantifying covalent modification of KRASG12C
Assay type: binding
Conditions: competition with radiolabeled covalent probe (Compound B/Compound A), 2 hours incubation, 10 nM KRasG12C
In short: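 Test compounds compete with a radiolabeled covalent probe for modification of N-terminally biotinylated KRasG12C(M1-K169):GDP, final 10 nM protein, 25 nM radio-ligand, 475 nM unlabelled ligand, 2 h with agitation in 20 mM Tris-HCl pH 7.5, 150 mM NaCl, 0.1 mM MgCl2, 0.01% Tween-20.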

SMILES | pIC50
CC[C@@]1(C)CN(C[C@@H]2COCCO2)CCN1c1nn(C2CC3(C2)CN(C(=O)/C=C/Cl)C3)c(C)c1-c1c(Cl)c(C)cc2[nH]ncc12 (single isomer, unassigned) [Example 175a] | 6.03
C=CC(=O)N1CC2(CC(n3nc(N4CC[C@@H](CN5CCN6C(=O)N(C)CC6C5)CC4(C)C)c(-c4c(Cl)c(Cl)cc5[nH]ncc45)c3C)C2)C1 (single isomer, unassigned) [Example 264b] | 7.48
C=CC(=O)N1CC2(CC(n3nc(N4C5CCC4COC5)c(-c4c(Cl)c(C)cc5[nH]ncc45)c3C)C2)C1 (single isomer, unassigned) [Example 112b] | 6.77
C=CC(=O)N1CC2(CC(n3nc(N4CC[C@@H](CN5CCN6C(=O)N(C)CC6C5)CC4(C)C)c(-c4c(Cl)c(Cl)cc5[nH]ncc45)c3C)C2)C1 (single isomer, unassigned) [Example 264a] | 6.45
C=CC(=O)N1CC2(CC(n3nc(N4C5CCC4COC5)c(-c4c(Cl)c(C)cc5[nH]ncc45)c3C)C2)C1 (single isomer, unassigned) [Example 112a] | < 5.30
C=CC(=O)N1CC2(CC(n3nc(N4CC[C@@H](OCCN5CCOCC5)CC4(C)C)c(-c4c(Cl)c(Cl)cc5[nH]ncc45)c3C)C2)C1 (single isomer, unassigned) [Example 110a] | < 5.30
C=CC(=O)N1CC2(CC(n3nc(N4CC[C@@H](CN5CCOCC5)CC4(C)C)c(-c4c(Cl)c(C)cc5[nH]nc(C)c45)c3C#N)C2)C1 (single isomer, unassigned) [Example 225a] | 6.47
C=CC(=O)N1CC2(CC(n3nc(N4CCC(N(C)C5COC5)CC45CCC5)c(-c4c(Cl)c(C)cc5[nH]nc(N)c45)c3C)C2)C1 (single isomer, unassigned) [Example 115a, 1-(6-(4-(3-amino-5-chloro-6-methyl-1H-indazol-4-yl)-5-methyl-3-(8-(methyl(oxetan-3-yl)amino)-5-azaspiro[3.5]nonan-5-yl)-1H-pyrazol-1-yl)-2-azaspiro[3.3]heptan-2-yl)prop-2-en-1-one] | 8.15
C=CC(=O)N1CC2(CC(n3nc(N4CCC5(CN(C6COC6)C5)CC4(C)C)c(-c4c(Cl)c(C)cc5[nH]ncc45)c3C)C2)C1 (single isomer, unassigned) [Example 91a, 1-(6-(4-(5-chloro-6-methyl-1H-indazol-4-yl)-3-(6,6-dimethyl-2-(oxetan-3-yl)-2,7-diazaspiro[3.5]nonan-7-yl)-5-methyl-1H-pyrazol-1-yl)-2-azaspiro[3.3]heptan-2-yl)prop-2-en-1-one] | 5.54
C=CC(=O)N1CC2(CC(n3nc(N4CCN(C(=O)OC)CC4(C)C)c(-c4c(Cl)c(C)cc5[nH]ncc45)c3C)C2)C1 (single isomer, unassigned) [Example 125a, methyl 4-(1-(2-acryloyl-2-azaspiro[3.3]heptan-6-yl)-4-(5-chloro-6-methyl-1H-indazol-4-yl)-5-methyl-1H-pyrazol-3-yl)-3,3-dimethylpiperazine-1-carboxylate] | 5.66
C=CC(=O)N1CC2(CC(n3nc(N4CCN(C(=O)C(F)F)CC4(C)C)c(-c4c(Cl)c(C)cc5[nH]ncc45)c3C)C2)C1 (single isomer, unassigned) [Example 128b, 1-(6-(4-(5-chloro-6-methyl-1H-indazol-4-yl)-3-(4-(2,2-difluoroacetyl)-2,2-dimethylpiperazin-1-yl)-5-methyl-1H-pyrazol-1-yl)-2-azaspiro[3.3]heptan-2-yl)prop-2-en-1-one] | 7.27
C=CC(=O)N1CC2(CC(n3nc(N4CC[C@@H](CN5CC6CC(C5)N6C(C)=O)CC4(C)C)c(-c4c(Cl)c(Cl)cc5[nH]ncc45)c3C)C2)C1 (single isomer, unassigned) [Example 301b] | > 8.30
C=CC(=O)N1CC2(CC(n3nc(N4CCC(N5C[C@@H]6C[C@H]5CO6)CC4(C)C)c(-c4c(Cl)c(C)cc5[nH]ncc45)c3C)C2)C1 (single isomer, unassigned) [Example 83a] | < 5.30
C=CC(=O)N1CC2(CC(n3nc(N4CCC(O)CC4(C)C)c(-c4c(Cl)c(C)cc5[nH]ncc45)c3C)C2)C1 (single isomer, unassigned) [Example 29a, 1-(6-(4-(5-chloro-6-methyl-1H-indazol-4-yl)-3-(4-hydroxy-2,2-dimethylpiperidin-1-yl)-5-methyl-1H-pyrazol-1-yl)-2-azaspiro[3.3]heptan-2-yl)prop-2-en-1-one] | < 5.30
C=CC(=O)N1CC2(CC(n3nc(N4CCN(C(=O)COC)CC45CCC5)c(-c4c(Cl)c(C)cc5[nH]ncc45)c3C)C2)C1 (single isomer, unassigned) [Example 123a, 1-(6-(4-(5-chloro-6-methyl-1H-indazol-4-yl)-3-(8-(2-methoxyacetyl)-5,8-diazaspiro[3.5]nonan-5-yl)-5-methyl-1H-pyrazol-1-yl)-2-azaspiro[3.3]heptan-2-yl)prop-2-en-1-one] | < 5.30

Other lines, results leading:

pIC50 | SMILES
5.37 | C=CC(=O)N1CC2(CC(n3nc(N4CC[C@@H](CN5CCP(C)(=O)CC5)CC4(C)C)c(-c4c(Cl)c(Cl)cc5[nH]ncc45)c3C)C2)C1 (single isomer, unassigned) [Example 269a]
5.75 | C=CC(=O)N1CC2(CC(n3nc(N4CCN(C5COC5)CC45CCC5)c(-c4c(C)c(O)cc(C)c4Cl)c3C)C2)C1 (single isomer, unassigned) [Example 49a, 1-(6-(4-(2-chloro-5-hydroxy-3,6-dimethylphenyl)-5-methyl-3-(8-(oxetan-3-yl)-5,8-diazaspiro[3.5]nonan-5-yl)-1H-pyrazol-1-yl)-2-azaspiro[3.3]heptan-2-yl)prop-2-en-1-one]
< 5.30 | C=CC(=O)N1CC2(CC(n3nc(N4CCN(CCOC(F)F)CC45CCC5)c(-c4c(Cl)c(C)cc5[nH]ncc45)c3C)C2)C1 (single isomer, unassigned) [Example 183a, 1-(6-(4-(5-chloro-6-methyl-1H-indazol-4-yl)-3-(8-(2-(difluoromethoxy)ethyl)-5,8-diazaspiro[3.5]nonan-5-yl)-5-methyl-1H-pyrazol-1-yl)-2-azaspiro[3.3]heptan-2-yl)prop-2-en-1-one]
7.70 | C=CC(=O)N1CC2(CC(n3nc(N4CCC5(CN(C)CCO5)CC4(C)C)c(-c4c(Cl)c(C)cc5[nH]ncc45)c3C)C2)C1 (single isomer, unassigned) [Example 207b, 1-(6-(4-(5-chloro-6-methyl-1H-indazol-4-yl)-5-methyl-3-(4,8,8-trimethyl-1-oxa-4,9-diazaspiro[5.5]undecan-9-yl)-1H-pyrazol-1-yl)-2-azaspiro[3.3]heptan-2-yl)prop-2-en-1-one]
6.16 | C=CC(=O)N1CC2(CC(n3nc(N4CCN(C5CCOC5)CC45CCC5)c(-c4c(Cl)c(C)cc5[nH]ncc45)c3C)C2)C1 (single isomer, unassigned) [Example 132a, 1-(6-(4-(5-chloro-6-methyl-1H-indazol-4-yl)-5-methyl-3-(8-(tetrahydrofuran-3-yl)-5,8-diazaspiro[3.5]nonan-5-yl)-1H-pyrazol-1-yl)-2-azaspiro[3.3]heptan-2-yl)prop-2-en-1-one]
8.00 | C=CC(=O)N1CC2(CC(n3nc(N4CC[C@@H](CN5CCN6CCOC[C@H]6C5)CC4(C)C)c(-c4c(Cl)c(Cl)cc5[nH]ncc45)c3C)C2)C1 (single isomer, unassigned) [Example 288b]
8.10 | C=CC(=O)N1CC2(CC(n3nc(N4CCN(C[C@@H]5COCCO5)C[C@]4(C)CCOC)c(-c4c(Cl)c(C)cc5[nH]ncc45)c3C)C2)C1 (single isomer, unassigned) [Example 85b]
5.60 | C=CC(=O)N1CC2(CC(n3nc(N4CCC(CN5CCS(=O)(=O)CC5)CC4(C)C)c(-c4c(Cl)c(Cl)cc5[nH]ncc45)c3C)C2)C1 (single isomer, unassigned) [Example 236b, 1-(6-(4-(5,6-dichloro-1H-indazol-4-yl)-3-(4-((1,1-dioxidothiomorpholino)methyl)-2,2-dimethylpiperidin-1-yl)-5-methyl-1H-pyrazol-1-yl)-2-azaspiro[3.3]heptan-2-yl)prop-2-en-1-one]
5.66 | C=CC(=O)N1CC2(CC(n3nc(N4CCCCC45CN(C(C)=O)C5)c(-c4c(Cl)c(C)cc5[nH]ncc45)c3C)C2)C1 (single isomer, unassigned) [Example 66b, 1-(6-(3-(2-acetyl-2,5-diazaspiro[3.5]nonan-5-yl)-4-(5-chloro-6-methyl-1H-indazol-4-yl)-5-methyl-1H-pyrazol-1-yl)-2-azaspiro[3.3]heptan-2-yl)prop-2-en-1-one]
< 4.30 | C=CC(=O)N1CC2(CC(n3nc(N4CCN(C(C)=O)CC4)c(-c4c(C)c(C)cc5[nH]ncc45)c3C)C2)C1 (single isomer, unassigned) [Example 2a, 1-(6-(3-(4-acetylpiperazin-1-yl)-4-(5,6-dimethyl-1H-indazol-4-yl)-5-methyl-1H-pyrazol-1-yl)-2-azaspiro[3.3]heptan-2-yl)prop-2-en-1-one]
< 4.30 | C=CC(=O)N1CC2(CC(n3nc(N4CC(c5cccnc5)C4)c(-c4c(Cl)c(C)cc5[nH]ncc45)c3C)C2)C1 (single isomer, unassigned) [Example 37a, 1-(6-(4-(5-chloro-6-methyl-1H-indazol-4-yl)-5-methyl-3-(3-(pyridin-3-yl)azetidin-1-yl)-1H-pyrazol-1-yl)-2-azaspiro[3.3]heptan-2-yl)prop-2-en-1-one]
8.10 | C=CC(=O)N1CC2(CC(n3nc(N4CC[C@@H](CN5CCOCC5)CC4(C)C)c(-c4c(Cl)c(Cl)cc5[nH]nc(N)c45)c3C)C2)C1 (single isomer, unassigned) [Example 241a]
6.48 | C=CC(=O)N1CC2(CC(n3nc(N4[C@@H](C)CN(C(C)=O)C[C@@H]4C)c(-c4c(Cl)c(C)cc5[nH]ncc45)c3C)C2)C1 (single isomer, unassigned) [Example 56b]
